Experimental data reported in patent US7173004B2, “Macrocyclic isoquinoline peptide inhibitors of hepatitis C virus” (Bristol-Myers Squibb Company, priority 2003, dated 2007).

Columns and labels:
Assay type in all cases: biochemical
human liver cathepsin B = target: T1, human liver cathepsin B (Homo sapiens, UniProt P07858); test: Specificity assay, cathepsin B; settings: read-out: Cathepsin B activity in the specificity assays (IC50)
T1 construct: purchased Sigma; host or cells: human liver (by the enzyme's name)
Experimental: (§1) The specificities of compounds of the present invention were determined against a variety of serine proteases: human neutrophil elastase (HNE), porcine pancreatic elastase (PPE) and human pancreatic chymotrypsin and one cysteine protease: human liver cathepsin B. In all cases a 96-well plate format protocol using calorimetric p-nitroaniline (pNA) substrate specific for each enzyme was used as described previously (PCT Patent Application No. WO 00/09543) with some modifications to the serine protease assays. All enzymes were purchased from Sigma while the substrates were from Bachem.
(§2) Each assay included a 2 hr enzyme-inhibitor pre-incubation at room temperature followed by addition of substrate and hydrolysis to ˜30% conversion as measured on a Spectramax Pro microplate reader. Compound concentrations varied from 100 to 0.4 micromolar (“μM”) depending on their potency. […]
(§3) The percentage of inhibition was calculated using the formula: [1−((UVinh−UVblank)/(UVctl−UVblank))]×100 […]

[1] = target: T2, human neutrophil elastase (HNE) (Homo sapiens, UniProt P08246); test: Specificity assay, human neutrophil elastase; settings: read-out: HNE activity in the specificity assays (IC50)
T2 construct: purchased Sigma
T2 sequence (P08246 30-267): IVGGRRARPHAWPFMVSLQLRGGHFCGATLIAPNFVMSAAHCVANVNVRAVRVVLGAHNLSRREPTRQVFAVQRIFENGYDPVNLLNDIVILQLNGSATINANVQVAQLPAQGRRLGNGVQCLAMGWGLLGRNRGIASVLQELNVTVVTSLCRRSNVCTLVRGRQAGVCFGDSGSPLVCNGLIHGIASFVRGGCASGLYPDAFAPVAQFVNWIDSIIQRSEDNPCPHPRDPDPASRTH
Experimental: as §1, §2, §3

[2] = target: T3, porcine pancreatic elastase (PPE) (Sus scrofa, UniProt P00772); test: Specificity assay, porcine pancreatic elastase; settings: read-out: PPE activity in the specificity assays (IC50)
T3 construct: purchased Sigma
T3 sequence (P00772 27-266): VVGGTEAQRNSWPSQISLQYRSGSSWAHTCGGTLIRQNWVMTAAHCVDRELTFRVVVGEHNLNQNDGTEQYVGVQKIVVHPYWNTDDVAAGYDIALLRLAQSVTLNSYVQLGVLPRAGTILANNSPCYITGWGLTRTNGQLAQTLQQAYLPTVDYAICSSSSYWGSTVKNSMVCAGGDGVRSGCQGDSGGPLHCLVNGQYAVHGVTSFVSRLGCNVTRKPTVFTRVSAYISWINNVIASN
Experimental: as §1, §2, §3

[3] = tested on: human pancreatic chymotrypsin; test: Specificity assay, chymotrypsin; settings: read-out: Chymotrypsin activity in the specificity assays (IC50)
Experimental: as §1, §2, §3

Measured: IC50

CC(C)(C)OC(=O)N[C@H]1CCCCC/C=C\[C@@H]2C[C@@]2(C(=O)NS(C)(=O)=O)NC(=O)[C@@H]2C[C@@H](Oc3nccc4ccccc34)CN2C1=O [Compound 2, [18-(Isoquinolin-1-yloxy)-4-methanesulfonylaminocarbonyl-2,15-dioxo-3,16-diaza-tricyclo[14.3.0.0^4,6]nonadec-7-en-14-yl]-carbamic acid tert-butyl ester]
> 100 µM: all assays above
